Reference: US9012647B2, “Nitroxide modified non-steroidal anti-inflammatory compounds and uses thereof in the treatment and prevention of diseases or disorders” (The United States of America, as Represented by the …, priority 2011, dated 2015)
Read-outs that look alike come from different tables or passages of the source.

What was measured:
[1] = Cyclic voltammetry (oxidation potential); format: physicochemical
Description: Nitroxides undergo one electron reduction and oxidation, which provides their antioxidant characteristics. Cyclic Voltammetry (CV) measurements of the nitroxide-NSAIDs were taken with an EG Potensiostat/Galvanostat Model 273A, from AMETEK Princeton Applied Research (Oak Ridge, Tenn.). Measurements were performed at room temperature in PBS or 50% organic solvents, using the platinum auxiliary electrode and Ag/AgCl (saturated KCl) reference electrode.

LTB4 formation = test: Leukotriene B4 ELISA in A549 cells; format: cell-based; settings: for activity at 10 µg/mL / activity at 100 µg/mL: Homo sapiens, A549; for activity at 10 µg/mL / activity at 100 µg/mL / LTB4 / LTB4 % of control: Table 2B; for activity at 10 µg/mL / activity at 100 µg/mL / LTB4 % of control: control 100 ± 1 pg ml^−1; for LTB4: control 100 ± 1, mean ± S.D., n=3; for inhibition of LTB4 formation: at 10 μg ml^−1 or 100 μg ml^−1
Description: The A549 cell line was grown in Dulbecco's Modified Eagle Medium (DMEM) also supplemented with 10% heat inactivated fetal bovine serum and penicillin-streptomycin. […] The media was changed twice a week.
PGE2 was measured by enzyme enzyme-linked immunosorbent assay (ELISA) (Cayman Chemical, Ann Arbor, Mich.). (1) or (2) was dissolved in DMSO at a concentration of 10 mg ml^−1 for the in vitro experiments. A549 cells in 24 well plates were treated with the compound for 30 min., then arachidonic acid (20 μg ml^−1) was added at 37° C. for 5 min. The samples were frozen at −80° C. until assayed for PGE2. A 100 μl sample was added to EIA buffer (900 μl). Diluted sample (25 μl) was then added to a 96 well plate. The samples were incubated overnight at 4° C. The plate was then washed 5 times ([…]) and […] was added. The absorbance at 450 nm was determined in an ELISA reader. Tables 1A-1B show the mean value±S.D. of 3 determinations. Percents were obtained using the formula: %: sample pg/ml/control pg/ml×100.
Several recent modified NSAIDs target both prostaglandin as well as leukotriene (Martel-Pelletier et al., Ann. Rheum. Dis., 62:501-09 (2003)). Since nitroxides inhibit lipoxygenase (Rachmilewitz et al., Gut, 35: 1181-88 (1994)), the inhibition of LTB4 in A549 cells by these compounds was evaluated. Leukotriene B4 from A549 cells treated as described above was examined using an ELISA assay kit (Cayman Chemical, Ann Arbor, Mich.; Cat No. 520111) according to the manufacturer's instructions. Tables 2A-2B show the mean value±S.D. of 3 determinations. Percents were obtained using the formula: %: sample pg/ml/control pg/ml×100.

PGE2 production = test: PGE2 ELISA in A549 cells stimulated with arachidonic acid; format: cell-based; settings: Table 1B; for activity at 10 µg/mL / activity at 100 µg/mL: Homo sapiens, A549, read-out: PGE-2 % of control; for activity at 10 µg/mL / activity at 100 µg/mL / PGE-2 % of control: control 42 ± 3 pg ml^−1; for PGE-2: control 42 ± 3, mean ± S.D., n=3
Description: PGE2 was measured by enzyme enzyme-linked immunosorbent assay (ELISA) (Cayman Chemical, Ann Arbor, Mich.). […] A549 cells in 24 well plates were treated with the compound for 30 min., then arachidonic acid (20 μg ml^−1) was added at 37° C. for 5 min. The samples were frozen at −80° C. until assayed for PGE2. A 100 μl sample was added to EIA buffer (900 μl). Diluted sample (25 μl) was then added to a 96 well plate. The samples were incubated overnight at 4° C. The plate was then washed 5 times (200 μA) and Edman's reagent was added. The absorbance at 450 nm was determined in an ELISA reader. […] Percents were obtained using the formula: %: sample pg/ml/control pg/ml×100.

[2] = Maximum tolerated dose, IP injection; format: in vivo; settings: nude mice, monitored up to 24 h, death as end point; for MTD at 24 h: female, athymic nude, mouse, in vivo
Description: All animal experiments were carried out in compliance with the Guide for the Care and Use of Laboratory Animal Resources (National Research Council, 1996) and were approved by the National Cancer Institute Animal Care and Use Committee. Female athymic nude mice were supplied at 6 weeks of age by the Frederick Cancer Research Center and were housed five per cage in a climate-controlled environment. […] Each animal was weighed individually on the same day as the intraperitoneal (IP) injection. Different dosages were used to determine the maximum tolerated dose to be given to the animals. Each animal was monitored for up to 24 h and death was the end point of the experiment.

[3] = Hahn et al. 1992; cited from earlier work
[4] = Krishna et al. 1992, cited from earlier work; for oxidation potential Eox: vs. NHE
[5] = previous reports at pH 7.4; cited from earlier work
[6] = Superoxide scavenging: ferricytochrome c reduction, hypoxanthine/xanthine oxidase; format: biochemical; settings: PBS pH 7.4, 25° C., cyt c 60 μM; read-out: IC50, reduction rate of ferricytochrome c (superoxide scavenging)
Description: Superoxide was generated from the reaction of hypoxanthine (500 μM) with xanthine oxidase (10 mU) in PBS (pH 7.4, 25° C.) containing the metal chelator diethylenetriaminepentaacetic acid (DTPA, 50 μM). The rate of superoxide formation was assessed by ferricytochrome c (cyt c) (60 μM) reduction (550 nm, ε=21,000 M^−1 cm^−1), as previously described (Wasserman et al., Biochim. Biophys. Acta, 623: 457-60 (1980)). Different drug doses (5-100 μM) were used to scavenge superoxide by the modified nitroxide-NSAIDs.

[7] = Carrageenan-induced foot paw edema model; format: in vivo; settings: dose decreasing the inflammatory response by 50%, n = 4
Description: The in vivo anti-inflammatory activity was evaluated using the carrageenan-induced foot paw edema model reported previously (Winter et al. Proc. Soc. Exp. Biol. Med., 111: 544-47 (1962)).

For CC(=O)Oc1ccccc1C(=O)OC1CC(C)(C)N([O])C(C)(C)C1 [compound (1), TEMPO-aspirin], the “reversibility of cyclic voltammograph” value [1] was “reversible”, the “oxidation potential Eox” value ([1]; in PBS, versus Ag/AgCl) was 0.72 V and the oxidation potential Eox ([1]; in PBS, vs NHE) was 0.83 V.

With CC(=O)Oc1ccccc1C(=O)O [ASA, acetyl salicylic acid] the activity at 10 µg/mL (LTB4 formation; dose 10 μg ml^−1) was 64%, the activity at 100 µg/mL (LTB4 formation; dose 100 μg ml^−1) was 62% and the LTB4 (LTB4 formation; dose 10 μg ml^−1) was “(64 ± 13) pg ml^−1”. For the same molecule, the LTB4 (LTB4 formation; dose 100 μg ml^−1) was “(62 ± 5) pg ml^−1”, the “inhibition of LTB4 formation” value (LTB4 formation) was “no inhibition was observed” and the activity at 10 µg/mL (PGE2 production; dose 10 μg ml^−1) was 107%. For the same molecule, the activity at 100 µg/mL (PGE2 production; dose 100 μg ml^−1) was 23%, the PGE-2 (PGE2 production; dose 10 μg ml^−1) was “(45 ± 7) pg ml^−1” and the PGE-2 (PGE2 production; dose 100 μg ml^−1) was “(10 ± 2) pg ml^−1”. For the same molecule, the MTD at 24 h [2] was 100 mg/kg.

For CC1(C)CC(O)CC(C)(C)N1[O] [TEMPOL], the “tolerance (maximum tolerated dose)” value [3] is given as 275 mg/kg, the “oxidation potential Eox” value [4] is given as 0.810 V and the “rate constant with superoxide” value [5] is given as 65000 M⁻¹ s⁻¹.

With COc1ccc2c(c1)c(CC(=O)OC1CC(C)(C)N([O])C(C)(C)C1)c(C)n2C(=O)c1ccc(Cl)cc1 [compound (2), TEMPO-indomethacin] the “reversibility of cyclic voltammograph” value [1] was “reversible” and the “oxidation potential Eox” value ([1]; in acetonitrile (100 mM tetrabutylammonium chloride), versus Ag/AgCl) was 1.312 V.

In the case of CC1(C)CCCC(C)(C)N1[O] [TEMPO, 2,2,6,6-Tetramethyl-1-piperidinyloxy], the E1/2 [4] is given as 197 mV, the “oxidation potential Eox” value [4] is given as 0.622 V and the “rate constant with superoxide” value [5] is given as 120000 M⁻¹ s⁻¹. For the same molecule, the “LTB4 % of control” value (LTB4 formation; dose 10 μg ml^−1) was 100%, the LTB4 (LTB4 formation; dose 10 μg ml^−1) was “(100 ± 2) pg ml^−1” and the “LTB4 % of control” value (LTB4 formation; dose 100 μg ml^−1) was 100%. For the same molecule, the LTB4 (LTB4 formation; dose 100 μg ml^−1) was “(100 ± 1) pg ml^−1”, the “inhibition of LTB4 formation” value (LTB4 formation) was “no inhibition was observed” and the “oxidation potential Eox” value ([1]; in acetonitrile, same conditions, vs. NHE) was 1.0 V. For the same molecule, the “PGE-2 % of control” value (PGE2 production; dose 10 μg ml^−1) was 133%, the PGE-2 (PGE2 production; dose 10 μg ml^−1) was “(56 ± 10) pg ml^−1” and the “PGE-2 % of control” value (PGE2 production; dose 100 μg ml^−1) was 123%. The PGE-2 (PGE2 production; dose 100 μg ml^−1) was “(52 ± 8) pg ml^−1”, the IC50 [6] was about 50 µM and the “Maximum Tolerated Dose (MTD)” value [2] was 140 mg/kg.

With COc1ccc2c(c1)c(CC(=O)O)c(C)n2C(=O)c1ccc(Cl)cc1 [IND, indomethacin] the “Anti-inflammatory ED50” value [7] was 4.2 mg/kg, the activity at 10 µg/mL (LTB4 formation; dose 10 μg ml^−1) was 100% and the activity at 100 µg/mL (LTB4 formation; dose 100 μg ml^−1) was 82%. For the same molecule, the LTB4 (LTB4 formation; dose 10 μg ml^−1) was “(100 ± 10) pg ml^−1”, the LTB4 (LTB4 formation; dose 100 μg ml^−1) was “(82 ± 9) pg ml^−1” and the “inhibition of LTB4 formation” value (LTB4 formation) was “no inhibition was observed”. For the same molecule, the activity at 10 µg/mL (PGE2 production; dose 10 μg ml^−1) was 50%, the activity at 100 µg/mL (PGE2 production; dose 100 μg ml^−1) was 12% and the PGE-2 (PGE2 production; dose 10 μg ml^−1) was “(21 ± 3) pg ml^−1”. For the same molecule, the PGE-2 (PGE2 production; dose 100 μg ml^−1) was “(5 ± 1) pg ml^−1” and the MTD at 24 h [2] was 5 mg/kg.
